Source: patent US20060013769A1, “Transdermal drug delivery formulations and method of determining optimal amounts of vasodilators therein” (priority 2004, published 2006)

Legend:
Assay type in all cases: in vivo
blood flow = test: Maximal blood flow stimulated by vasodilator, laser Doppler perfusion imager
Procedure: Maximal blood flow stimulated by the vasodilator tolazoline was measured using a laser Doppler perfusion imager.

[1] = Topical ibuprofen vehicle with tolazoline applied to rabbits, ibuprofen in plasma over three hours
Procedure: Test formulations containing 15% ibuprofen-sodium salt, 5% oleic acid, 10% menthol, 5% propylene glycol, 10% dimethylacetamide, 1% decylmethylsulfoxide, 1% u-care, varying amounts of tolazoline ranging from 0-0.1%, and 52.9-53% deionized water were each blended in a beaker with a mechanical mixer and heated to 40° C. for 30 minutes until clear, then cooled to room temperature.
150 mg of sodium salt-ibuprofen was formulated with the above lipid-based vehicle formulatiosn containing increasing amounts of the vasodilator tolazoline. The Ibuprofen vehicle was topically applied to rabbits and blood samples were taken over a three-hour period. Plasma was prepared and analyzed for the amount of ibuprofen present in the blood. The data represents the integrated value of ibuprofen concentration in the blood for the three hour time period for each concentration of tolazoline.

[2] = Topical ibuprofen vehicle with tocopherol nicotinate applied to rabbits, ibuprofen in plasma over three hours
Procedure: Test formulations containing 15% ibuprofen-sodium salt, 5% oleic acid, 10% menthol, 5% propylene glycol, 10% dimethylacetamide, 1% decylmethylsulfoxide, 1% u-care, varying amounts of tocopherol nicotinate in the range of 0-1%, and 52-53% deionized water were each blended in a beaker with a mechanical mixer and heated to 40° C. for 30 minutes until clear, then cooled to room temperature.
150 mg of sodium salt-ibuprofen was formulated with a 1-gram dose of the above lipid-based vehicle formulations containing the increasing amounts of the vasodilator tocopherol nicotinate. The Ibuprofen vehicle was topically applied to rabbits and blood samples were taken over a three-hour period. Plasma was prepared and analyzed for the amount of ibuprofen present in the blood. The data represents the integrated value of ibuprofen concentration in the blood for the three hour time period for each concentration of tocopherol nicotinate.

[3] = Topical ibuprofen vehicle with papaverine applied to rabbits, ibuprofen in plasma over three hours
Procedure: Test formulations containing 15% ibuprofen-sodium salt, 5% oleic acid, 10% menthol, 5% propylene glycol, 10% dimethylacetamide, 1% decylmethylsulfoxide, 1% u-care, varying amounts of papaverine ranging from 0-1%, and 52-53% deionized water were each blended in a beaker with a mechanical mixer and heated to 40° C. for 30 minutes until clear, then cooled to room temperature.
150 mg of sodium salt-ibuprofen was formulated with the above lipid-based vehicle formulatiosn containing increasing amounts of the vasodilator papaverine. The Ibuprofen vehicle was topically applied to rabbits and blood samples were taken over a three-hour period. Plasma was prepared and analyzed for the amount of ibuprofen present in the blood. The data represents the integrated value of ibuprofen concentration in the blood for the three hour time period for each concentration of papaverine.

c1ccc(CC2=NCCN2)cc1 [tolazoline]
concentration at which the maximum blood flow was achieved (blood flow): 0.5%

CC(C)Cc1ccc(C(C)C(=O)O)cc1 (centres unmarked) [Ibuprofen, ibuprofen]
integrated value of ibuprofen concentration in the blood (0-3 hr) ([1]; 0.0010% tolazoline in vehicle): 3900 ng·h/mL
integrated value of ibuprofen concentration in the blood (0-3 hr) ([1]; 0.0050% tolazoline in vehicle): 5240 ng·h/mL
integrated value of ibuprofen concentration in the blood (0-3 hr) ([1]; 0.0100% tolazoline in vehicle): 5660 ng·h/mL
integrated value of ibuprofen concentration in the blood (0-3 hr) ([1]; 0.0500% tolazoline in vehicle): 3530 ng·h/mL
integrated value of ibuprofen concentration in the blood (0-3 hr) ([1]; 0.100% tolazoline in vehicle): 4530 ng·h/mL
integrated value of ibuprofen concentration in the blood (0-3 hr) ([1]; Control (no tolazoline), 150 mg sodium salt-ibuprofen in vehicle): 1030 ng·h/mL
integrated value of ibuprofen concentration in the blood (0-3 hr) ([2]; 0.00010% tocopherol nicotinate in vehicle): 3980 ng·h/mL
integrated value of ibuprofen concentration in the blood (0-3 hr) ([2]; 0.00025% tocopherol nicotinate in vehicle): 9480 ng·h/mL
integrated value of ibuprofen concentration in the blood (0-3 hr) ([2]; 0.00050% tocopherol nicotinate in vehicle): 3120 ng·h/mL
integrated value of ibuprofen concentration in the blood (0-3 hr) ([2]; 0.0010% tocopherol nicotinate in vehicle): 5080 ng·h/mL
integrated value of ibuprofen concentration in the blood (0-3 hr) ([2]; 0.0100% tocopherol nicotinate in vehicle): 5840 ng·h/mL
integrated value of ibuprofen concentration in the blood (0-3 hr) ([2]; 0.100% tocopherol nicotinate in vehicle): 4300 ng·h/mL
integrated value of ibuprofen concentration in the blood (0-3 hr) ([2]; 1.000% tocopherol nicotinate in vehicle): 4400 ng·h/mL
integrated value of ibuprofen concentration in the blood (0-3 hr) ([2]; Control (no tocopherol nicotinate), 150 mg sodium salt-ibuprofen in 1 g vehicle): 1030 ng·h/mL
integrated value of ibuprofen concentration in the blood (0-3 hr) ([3]; 0.00010% papaverine in vehicle): 5120 ng·h/mL
integrated value of ibuprofen concentration in the blood (0-3 hr) ([3]; 0.00025% papaverine in vehicle): 4470 ng·h/mL
integrated value of ibuprofen concentration in the blood (0-3 hr) ([3]; 0.00050% papaverine in vehicle): 8370 ng·h/mL
integrated value of ibuprofen concentration in the blood (0-3 hr) ([3]; 0.0010% papaverine in vehicle): 7620 ng·h/mL
integrated value of ibuprofen concentration in the blood (0-3 hr) ([3]; 0.0100% papaverine in vehicle): 5720 ng·h/mL
integrated value of ibuprofen concentration in the blood (0-3 hr) ([3]; 0.100% papaverine in vehicle): 4230 ng·h/mL
integrated value of ibuprofen concentration in the blood (0-3 hr) ([3]; 1.000% papaverine in vehicle): 6160 ng·h/mL
integrated value of ibuprofen concentration in the blood (0-3 hr) ([3]; Control (no papaverine), 150 mg sodium salt-ibuprofen in vehicle): 1030 ng·h/mL
